Laboratory results as given in patent publication US7582645B2, “Pyrimidine derivatives for treatment of hyperproliferative disorders” (Bayer Pharmaceuticals Corporation, priority 2003, dated 2009).

System: HCT116 cells
Assay: HCT116 cytotoxic activity assay (Alamar Blue, 72 h)
Format: cell-based
Settings: Homo sapiens, HCT-116, 72 h compound exposure
Protocol: Representative compounds of this invention were tested for cytotoxicity using the above-described assay procedure with the following results: […]

[1] = greater than 500 nM but less than or equal to 2 μM

Row | SMILES | IC50 (greater than 2 μM) [nM] | IC50 (less than or equal to 500 nM) [nM] | also measured
1 | NC(=O)c1cc(Oc2ccc(Nc3cc(-c4cccc(CO)c4)nc(N)n3)cc2)ccn1 [Example 265, 4-[4-({2-amino-6-[3-(hydroxymethyl)phenyl]pyrimidin-4-yl}amino)phenoxy]pyridine-2-carboxamide] | > 2000 | – | –
2 | CC(C)c1ccc(-c2cc(Nc3ccc(Oc4ccnc(C(N)=O)c4)cc3)nc(N)n2)cc1 [Example 266, 4-(4-{[2-amino-6-(4-isopropylphenyl)pyrimidin-4-yl]amino}phenoxy) pyridine-2-carboxamide] | – | ≤ 500 | –
3 | Cc1ccc(-c2cc(Nc3ccc(Oc4ccnc(C(N)=O)c4)cc3)nc(N)n2)cc1 [Example 267, 4-(4-{[2-amino-6-(4-methylphenyl)pyrimidin-4-yl]amino}phenoxy) pyridine-2-carboxamide] | – | ≤ 500 | –
4 | Cc1cccc(-c2cc(Nc3ccc(Oc4ccnc(C(N)=O)c4)cc3)nc(N)n2)c1 [Example 268, 4-(4-{[2-amino-6-(3-methylphenyl)pyrimidin-4-yl]amino}phenoxy) pyridine-2-carboxamide] | – | ≤ 500 | –
5 | NC(=O)c1cc(Oc2ccc(Nc3cc(-c4ccsc4)nc(N)n3)cc2)ccn1 [Example 269, 4-(4-{[2-amino-6-(3-thienyl)pyrimidin-4-yl]amino}phenoxy) pyridine-2-carboxamide] | – | ≤ 500 | –
6 | CC(C)c1cccc(-c2cc(Nc3ccc(Oc4ccnc(C(N)=O)c4)cc3)nc(N)n2)c1 [Example 270, 4-(4-{[2-amino-6-(3-isopropylphenyl)pyrimidin-4-yl]amino}phenoxy) pyridine-2-carboxamide] | > 2000 | – | –
7 | Cc1ccc(-c2cc(Nc3ccc(Oc4ccnc(C(N)=O)c4)cc3)nc(N)n2)cc1N [Example 271, 4-(4-{[2-amino-6-(3-amino-4-methylphenyl)pyrimidin-4-yl]amino}phenoxy)pyridine-2-carboxamide] | – | ≤ 500 | –
8 | NC(=O)c1cc(Oc2ccc(Nc3cc(-c4ccc(Cl)c(Cl)c4)nc(N)n3)cc2)ccn1 [Example 272, 4-(4-{[2-amino-6-(3,4-dichlorophenyl)pyrimidin-4-yl]amino}phenoxy)pyridine-2-carboxamide] | > 2000 | – | –
9 | CCOc1cccc(-c2cc(Nc3ccc(Oc4ccnc(C(N)=O)c4)cc3)nc(N)n2)c1 [Example 273, 4-(4-{[2-amino-6-(3-ethoxyphenyl)pyrimidin-4-yl]amino}phenoxy) pyridine-2-carboxamide] | – | ≤ 500 | –
10 | N#Cc1cc(Oc2ccc(Nc3cc(-c4cccc(OC(F)(F)F)c4)nc(N)n3)cc2)ccn1 [Example 274, 4-[4-({2-amino-6-[3-(trifluoromethoxy)phenyl]pyrimidin-4-yl}amino)phenoxy]pyridine-2-carbonitrile] | > 2000 | – | –
11 | N#Cc1cc(Oc2ccc(Nc3cc(-c4ccccc4OC(F)(F)F)nc(N)n3)cc2)ccn1 [Example 275, 4-[4-({2-amino-6-[2-(trifluoromethoxy)phenyl]pyrimidin-4-yl}amino)phenoxy]pyridine-2-carbonitrile] | – | ≤ 500 | –
12 | N#Cc1cc(Oc2ccc(Nc3cc(-c4cc(F)cc(F)c4)nc(N)n3)cc2)ccn1 [Example 276, 4-(4-{[2-amino-6-(3,5-difluorophenyl)pyrimidin-4-yl]amino}phenoxy)pyridine-2-carbonitrile] | – | – | IC50 [1]: 500 to 2000 nM
13 | NC(=O)c1cc(Oc2ccc(Nc3cc(-c4cccc(OC(F)(F)F)c4)nc(N)n3)cc2)ccn1 [Example 277, 4-[4-({2-amino-6-[3-(trifluoromethoxy)phenyl]pyrimidin-4-yl}amino)phenoxy]pyridine-2-carboxamide] | > 2000 | – | –
14 | NC(=O)c1cc(Oc2ccc(Nc3cc(-c4ccccc4OC(F)(F)F)nc(N)n3)cc2)ccn1 [Example 278, 4-[4-({2-amino-6-[2-(trifluoromethoxy)phenyl]pyrimidin-4-yl}amino)phenoxy]pyridine-2-carboxamide] | – | ≤ 500 | –
15 | NC(=O)c1cc(Oc2ccc(Nc3cc(-c4cc(F)cc(F)c4)nc(N)n3)cc2)ccn1 [Example 279, 4-(4-{[2-amino-6-(3,5-difluorophenyl)pyrimidin-4-yl]amino}phenoxy)pyridine-2-carboxamide] | – | – | IC50 [1]: 500 to 2000 nM
16 | NC(=O)c1cc(Oc2cccc(Nc3cc(-c4ccc(-c5ccccc5)cc4)nc(N)n3)c2)ccn1 [Example 280, 4-{3-[(2-amino-6-biphenyl-4-ylpyrimidin-4-yl)amino]phenoxy} pyridine-2-carboxamide] | > 2000 | – | –
17 | NC(=O)c1cc(Oc2cccc(Nc3cc(-c4cccc(OCc5ccccc5)c4)nc(N)n3)c2)ccn1 [Example 281, 4-[3-({2-amino-6-[3-(benzyloxy)phenyl]pyrimidin-4-yl}amino)phenoxy]pyridine-2-carboxamide] | – | – | IC50 [1]: 500 to 2000 nM
18 | Cc1cc(Oc2ccc(Nc3cc(-c4ccc(F)cc4)nc(N)n3)cc2)ccn1 [Example 282, 6-(4-fluorophenyl)-N4*-{4-[(2-methylpyridin-4-yl)oxy]phenyl} pyrimidine-2,4-diamine] | – | ≤ 500 | –
19 | NC(=O)c1cc(Oc2cccc(Nc3cc(-c4cccc(N)c4)nc(N)n3)c2)ccn1 [Example 283, 4-(3-{[2-amino-6-(3-aminophenyl)pyrimidin-4-yl]amino}phenoxy) pyridine-2-carboxamide] | – | – | IC50 [1]: 500 to 2000 nM

Row | SMILES | IC50 (greater than 2 μM) [nM] | IC50 (less than or equal to 500 nM) [nM] | also measured
20 | COc1ccc(-c2cc(Nc3cccc(Oc4ccnc(C(N)=O)c4)c3)nc(N)n2)cn1 [Example 284, 4-(3-{[2-amino-6-(6-methoxypyridin-3-yl)pyrimidin-4-yl]amino}phenoxy) pyridine-2-carboxamide] | – | – | IC50 [1]: 500 to 2000 nM
21 | NC(=O)c1cc(Oc2cccc(Nc3cc(-c4cccc(F)c4)nc(N)n3)c2)ccn1 [Example 285, 4-(3-{[2-amino-6-(3-fluorophenyl)pyrimidin-4-yl]amino}phenoxy) pyridine-2-carboxamide] | > 2000 | – | –
22 | NC(=O)c1cc(Oc2cccc(Nc3cc(-c4ccccc4F)nc(N)n3)c2)ccn1 [Example 286, 4-(3-{[2-amino-6-(2-fluorophenyl)pyrimidin-4-yl]amino}phenoxy) pyridine-2-carboxamide] | – | – | IC50 [1]: 500 to 2000 nM
23 | CN(C)c1ccc(-c2cc(Nc3cccc(Oc4ccnc(C(N)=O)c4)c3)nc(N)n2)cc1 [Example 287, 4-[3-({2-amino-6-[4-(dimethylamino)phenyl]pyrimidin-4-yl}amino)phenoxy]pyridine-2-carboxamide] | > 2000 | – | –
24 | CCc1cccc(-c2cc(Nc3cccc(Oc4ccnc(C(N)=O)c4)c3)nc(N)n2)c1 [Example 288, 4-(3-{[2-amino-6-(3-ethylphenyl)pyrimidin-4-yl]amino}phenoxy) pyridine-2-carboxamide] | – | ≤ 500 | –
25 | COc1ccc(C(C)C)cc1-c1cc(Nc2cccc(Oc3ccnc(C(N)=O)c3)c2)nc(N)n1 [Example 289, 4-(3-{[2-amino-6-(5-isopropyl-2-methoxyphenyl)pyrimidin-4-yl]amino}phenoxy)pyridine-2-carboxamide] | > 2000 | – | –
26 | Cc1ccccc1-c1cc(Nc2cccc(Oc3ccnc(C(N)=O)c3)c2)nc(N)n1 [Example 290, 4-(3-{[2-amino-6-(2-methylphenyl)pyrimidin-4-yl]amino}phenoxy) pyridine-2-carboxamide] | – | ≤ 500 | –
27 | COc1ccccc1-c1cc(Nc2cccc(Oc3ccnc(C(N)=O)c3)c2)nc(N)n1 [Example 291, 4-(3-{[2-amino-6-(2-methoxyphenyl)pyrimidin-4-yl]amino}phenoxy) pyridine-2-carboxamide] | – | – | IC50 [1]: 500 to 2000 nM
28 | COc1cccc(-c2cc(Nc3cccc(Oc4ccnc(C(N)=O)c4)c3)nc(N)n2)c1 [Example 292, 4-(3-{[2-amino-6-(3-methoxyphenyl)pyrimidin-4-yl]amino}phenoxy) pyridine-2-carboxamide] | – | ≤ 500 | –
29 | CC(C)c1ccc(-c2cc(Nc3cccc(Oc4ccnc(C(N)=O)c4)c3)nc(N)n2)cc1 [Example 293, 4-(3-{[2-amino-6-(4-isopropylphenyl)pyrimidin-4-yl]amino}phenoxy) pyridine-2-carboxamide] | > 2000 | – | –
30 | N#CCc1ccc(-c2cc(Nc3cccc(Oc4ccnc(C(N)=O)c4)c3)nc(N)n2)cc1 [Example 294, 4-[3-({2-amino-6-[4-(cyanomethyl)phenyl]pyrimidin-4-yl}amino)phenoxy]pyridine-2-carboxamide] | – | – | IC50 [1]: 500 to 2000 nM
31 | Cc1ccc(-c2cc(Nc3cccc(Oc4ccnc(C(N)=O)c4)c3)nc(N)n2)cc1 [Example 295, 4-(3-{[2-amino-6-(4-methylphenyl)pyrimidin-4-yl]amino}phenoxy) pyridine-2-carboxamide] | > 2000 | – | –
32 | Cc1cccc(-c2cc(Nc3cccc(Oc4ccnc(C(N)=O)c4)c3)nc(N)n2)c1 [Example 296, 4-(3-{[2-amino-6-(3-methylphenyl)pyrimidin-4-yl]amino}phenoxy) pyridine-2-carboxamide] | – | ≤ 500 | –
33 | NC(=O)c1cc(Oc2cccc(Nc3cc(-c4cccnc4)nc(N)n3)c2)ccn1 [Example 297, 4-{3-[(2-amino-6-pyridin-3-ylpyrimidin-4-yl)amino]phenoxy} pyridine-2-carboxamide] | – | – | IC50 [1]: 500 to 2000 nM
34 | NC(=O)c1cc(Oc2cccc(Nc3cc(-c4ccsc4)nc(N)n3)c2)ccn1 [Example 298, 4-(3-{[2-amino-6-(3-thienyl)pyrimidin-4-yl]amino}phenoxy) pyridine-2-carboxamide] | – | ≤ 500 | –
35 | CC(C)c1cccc(-c2cc(Nc3cccc(Oc4ccnc(C(N)=O)c4)c3)nc(N)n2)c1 [Example 299, 4-(3-{[2-amino-6-(3-isopropylphenyl)pyrimidin-4-yl]amino}phenoxy) pyridine-2-carboxamide] | > 2000 | – | –
36 | COc1ccc(OC)c(-c2cc(Nc3cccc(Oc4ccnc(C(N)=O)c4)c3)nc(N)n2)c1 [Example 300, 4-(3-{[2-amino-6-(2,5-dimethoxyphenyl)pyrimidin-4-yl]amino}phenoxy)pyridine-2-carboxamide] | – | – | IC50 [1]: 500 to 2000 nM
37 | NC(=O)c1cc(Oc2cccc(Nc3cc(-c4ccc[nH]4)nc(N)n3)c2)ccn1 [Example 301, 4-(3-{[2-amino-6-(1H-pyrrol-2-yl)pyrimidin-4-yl]amino}phenoxy) pyridine-2-carboxamide] | > 2000 | – | –
38 | Cc1ccc(-c2cc(Nc3cccc(Oc4ccnc(C(N)=O)c4)c3)nc(N)n2)cc1N [Example 302, 4-(3-{[2-amino-6-(3-amino-4-methylphenyl)pyrimidin-4-yl]amino}phenoxy)pyridine-2-carboxamide] | – | ≤ 500 | –
